Measurements: patent US20230172201A1, “Use of 4-Phenylbutyric Acid and/or 3-Phenylbutyric Acid and/or 2-Phenylbutyric Acid in Preventing and Treating Cryptogamic Diseases” (Institut National de Recherche Pour L'Agriculture, …, priority 2020, published 2023)
Where two headings read alike, the source gives them in different places.

What was measured:
Type in all cases: cell-based
[1] = test system: Colletrotrichum lindemuthianum; experiment: Radial growth of the mycelium
Magnaporthe oryzae = experiment: microbe, parasite or virus in culture; conditions: Pyricularia oryzae, 336 h
Sclerotinia sclerotorum = experiment: Radial growth of the mycelium; conditions: 168 h
Helmintosporium teres = experiment: Radial growth of the mycelium
Zymoseptoria tritici = experiment: Growth of the primary hypha on PG solid medium
[2] = lowest concentration tested (1 mM)

O=C(O)CCCc1ccccc1 [4-PBA, 4-Phenylbutyric acid]
inhibition at 1000 µM ([1]; 288 h, 1 mM 4-PBA, time 12 days): 67%
inhibition at 2000 µM ([1]; 288 h, 2 mM 4-PBA, time 12 days): 75%
inhibition at 5000 µM ([1]; 288 h, 5 mM 4-PBA, time 12 days): 97%
EC50 ([1]; 288 h, time 12 days (day control colonized the whole Petri dish)): 450 µM
persistence of the molecule [1, 2]: ≤ 30 days
EC50 (Magnaporthe oryzae): 1330 µM
inhibition at 1000 µM (Magnaporthe oryzae): 39%
inhibition at 2000 µM (Magnaporthe oryzae): 66%
inhibition at 5000 µM (Magnaporthe oryzae): 100%
inhibition at 1000 µM (Sclerotinia sclerotorum; 1 mM 4-PBA, time 7 days): 0%
inhibition at 2000 µM (Sclerotinia sclerotorum; 2 mM 4-PBA, time 7 days): 73%
inhibition at 5000 µM (Sclerotinia sclerotorum; 5 mM 4-PBA, time 7 days): 100%
EC50 (Sclerotinia sclerotorum; time 7 days (day control colonized the whole Petri dish)): 1900 µM
inhibition at 1000 µM (Helmintosporium teres; 240 h, 1 mM 4-PBA, time 10 days): 94%
inhibition at 2000 µM (Helmintosporium teres; 240 h, 2 mM 4-PBA, time 10 days): 97%
inhibition at 5000 µM (Helmintosporium teres; 240 h, 5 mM 4-PBA, time 10 days): 100%
EC50 (Helmintosporium teres; 240 h, time 10 days (day control colonized the whole Petri dish)): 0.00665 µM
persistence of the molecule (Helmintosporium teres; [2]): ≤ 30 days
EC50 times lower than that of B. cinerea (Helmintosporium teres; radial growth EC50 compared with B. cinerea): 450 000 times
EC50 (Zymoseptoria tritici; 48 h, isolate 14-FT-A1, 48 hours): 245 µg/mL
EC50 (Zymoseptoria tritici; 48 h, isolate 14-FT-A1, 48 hours, read-out: EC50): 1320 µM
EC50 (Zymoseptoria tritici; 48 h, isolate 37-30, 48 hours): 163 µg/mL
EC50 (Zymoseptoria tritici; 48 h, isolate 37-30, 48 hours, read-out: EC50): 874 µM
EC50 (Zymoseptoria tritici; 48 h, isolate 37-41, 48 hours): 164 µg/mL
EC50 (Zymoseptoria tritici; 48 h, isolate 37-41, 48 hours, read-out: EC50): 880 µM
EC50 (Zymoseptoria tritici; 48 h, isolate 11183, 48 hours): 196 µg/mL
EC50 (Zymoseptoria tritici; 48 h, isolate 11183, 48 hours, read-out: EC50): 1050 µM
EC50 (Zymoseptoria tritici; 48 h, isolate IPO-323, 48 hours): 122 µg/mL
EC50 (Zymoseptoria tritici; 48 h, isolate IPO-323, 48 hours, read-out: EC50): 657 µM
EC50 (Zymoseptoria tritici; 48 h, isolate ST5548, 48 hours): 246 µg/mL
EC50 (Zymoseptoria tritici; 48 h, isolate ST5548, 48 hours, read-out: EC50): 1320 µM
EC50 (Zymoseptoria tritici; 48 h, isolate STDP-047915, 48 hours): 212 µg/mL
EC50 (Zymoseptoria tritici; 48 h, isolate STDP-047915, 48 hours, read-out: EC50): 1140 µM
EC50 (Zymoseptoria tritici; six isolates resistant to conventional fungicides, read-out: EC50 calculated for all of these isolates, order of magnitude): ~1000 µM
